According to publication PMC12440824, “Chimeric deubiquitinase engineering reveals structural basis for specific inhibition of the mitophagy regulator USP30” (Nature Structural & Molecular Biology, 2025):
Several values for one entry are separate records, joined by “and”; a condition that tells them apart may be missing. Equal entries are not always repeated.

Experiments:
[1] = biological target: USP30^ch3 F157A (Homo sapiens, UniProt Q70CQ3, F157A, form not given); experiment: Thermal shift assay, USP30 ch3 F157A; assay type: binding; details: 20 μM inhibitor
USP30^ch3 F157A, sequence (Q70CQ3 64-502 F157A, form open): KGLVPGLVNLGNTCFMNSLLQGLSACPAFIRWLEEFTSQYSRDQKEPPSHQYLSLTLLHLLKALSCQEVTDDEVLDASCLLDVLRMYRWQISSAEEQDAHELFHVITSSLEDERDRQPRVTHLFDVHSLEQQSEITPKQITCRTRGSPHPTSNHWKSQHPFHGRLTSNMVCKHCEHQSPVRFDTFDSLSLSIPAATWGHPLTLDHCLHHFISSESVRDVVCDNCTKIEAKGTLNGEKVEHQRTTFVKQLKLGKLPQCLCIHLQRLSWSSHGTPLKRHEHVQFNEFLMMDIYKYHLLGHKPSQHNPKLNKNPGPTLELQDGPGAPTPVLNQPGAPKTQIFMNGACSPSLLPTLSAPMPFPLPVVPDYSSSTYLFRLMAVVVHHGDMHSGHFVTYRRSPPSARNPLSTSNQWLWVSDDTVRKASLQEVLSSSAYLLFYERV
USP30^ch3 F157A, sequence (P54578 248-318 partner, form open): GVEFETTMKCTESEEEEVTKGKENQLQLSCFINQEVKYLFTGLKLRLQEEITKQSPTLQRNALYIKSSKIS
USP30^ch3 F157A, sequence (Q9P2H5 821-846 partner, form open): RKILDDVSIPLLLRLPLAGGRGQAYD
Experimental: (§1) The thermal stability of USP30 constructs and effects of either inhibitor or Ub-PA binding were determined by thermal shift assays. Inhibitor, Ub-PA and SYPRO orange dye (Sigma, 5,000× stock in DMSO) solutions were prepared in 1× PBS, 4 mM DTT. Inhibitor/Ub-PA was prediluted to 100 µM, and SYPRO orange dye was prediluted to 50× (from the commercial stock). Mixtures of protein, inhibitor/Ub-PA and SYPRO were prepared with inhibitor/Ub-PA at a final concentration of 20 μM, SYPRO at a final concentration of 4× and protein at a final concentration of 2 μM for c1, 4 μM for ch1, ch4 and c2 and 3 μM for ch2 and ch3. Samples were added in triplicate to a white 96-well PCR plate (Bio-Rad). Fluorescence intensity was monitored (excitation, 450–490 nm; emission, 560–580 nm) at a gradient of 20–90 °C (increment of 0.3 °C, hold for 5 s before read) on a real-time PCR system (Bio-Rad).

[2] = biological target: USP30^ch3 I154A (Homo sapiens, UniProt Q70CQ3, I154A, form not given); experiment: Thermal shift assay, USP30 ch3 I154A; assay type: binding; details: 20 μM inhibitor
USP30^ch3 I154A, sequence (Q70CQ3 64-502 I154A, form open): as the sequence (Q70CQ3 64-502 F157A, form open) above, with I91A, A94F counted along it
USP30^ch3 I154A, sequence (P54578 248-318 partner, form open): as the sequence (P54578 248-318 partner, form open) above
Experimental: as §1

[3] = system: USP30^ch4; experiment: Thermal shift assay, USP30 ch4; assay type: binding, human; details: 20 μM inhibitor; for ΔTm, USP30^ch4: replicates or average
Experimental: as §1

[4] = system: T1, Flag-tagged, full-length USP30 F453Y in HEK293 cells; experiment: Cellular ubiquitin probe competition, overexpressed Flag-tagged USP30 F453Y; assay type: cell-based, human; details: 2 µM compound, 2 h; HA-Ub-PA probe in lysate
T1 construct: C-terminally Flag-tagged human USP30 (1–517) was used for transient transfection; expressed in transfected cells; host or cells: HEK293, transient transfection of a pOPINE vector
Experimental: HEK293 cells (8 × 10^5 cells per well) were seeded in six-well plates and cultivated for 24 h. PEI transfecting reagent (Polysciences) was pre-incubated for 10 min with the vectors in 200 μl Opti-MEM medium (2 µg DNA per well). Cells were transfected and incubated for 48 h. Following the treatment with either compounds or DMSO in fresh medium for an additional 2 h, cells were processed as described below. Cells were seeded at 8 × 10^5 cells per well and grown for 48 h. […] The medium was aspirated, and cells were washed once with ice-cold PBS. Cells were collected by scraping in lysis buffer (150 mM NaCl, 250 mM sucrose, 50 mM Tris, pH 8.0, 5 mM TCEP) supplemented with EDTA-free complete protease inhibitor cocktail and benzonase. Suspended cells were homogenized by 12 bursts of a microtip probe sonicator (Branson Sonifier 450) at 10% amplitude with pulses of 1 s on ice. Remaining cell debris was separated by centrifugation (20,817g, 5 min, 4 °C). […] After incubation for 10 min at room temperature, reactions were quenched by the addition of 4× reducing LDS sample buffer. Samples were resolved by SDS–PAGE and further analyzed via western blot. Using a Trans-Blot Turbo system (Bio-Rad, 1.0 A, 25 V, 30 min), proteins were blotted onto a nitrocellulose membrane. […]

[5] = system: T2, endogenous USP30 in HEK293 cells; experiment: Cellular ubiquitin probe competition, endogenous USP30; assay type: cell-based, human; details: 8 µM compound, 2 h; HA-Ub-PA probe in lysate
T2 construct: Target engagement assay with endogenous USP30; endogenous in cells; host or cells: HEK293 (DSMZ ACC 305)
Experimental: Cells were seeded at 8 × 10^5 cells per well and grown for 48 h. Compounds (2 µM for overexpressed USP30, 8 µM for endogenous USP30) or DMSO were added for 2 h in freshly supplied medium. The medium was aspirated, and cells were washed once with ice-cold PBS. Cells were collected by scraping in lysis buffer (150 mM NaCl, 250 mM sucrose, 50 mM Tris, pH 8.0, 5 mM TCEP) supplemented with EDTA-free complete protease inhibitor cocktail and benzonase. Suspended cells were homogenized by 12 bursts of a microtip probe sonicator (Branson Sonifier 450) at 10% amplitude with pulses of 1 s on ice. Remaining cell debris was separated by centrifugation (20,817g, 5 min, 4 °C). HA-Ub-PA probe was added to the cleared lysate (approximately 2–4 mg ml^−1) at a final concentration of 10 μM when indicated. After incubation for 10 min at room temperature, reactions were quenched by the addition of 4× reducing LDS sample buffer. Samples were resolved by SDS–PAGE and further analyzed via western blot.
Using a Trans-Blot Turbo system (Bio-Rad, 1.0 A, 25 V, 30 min), proteins were blotted onto a nitrocellulose membrane. […] Images were recorded on a ChemiDoc MP Imaging System (Bio-Rad).

[6] = biological target: USP30^ch3 A162S (Homo sapiens, UniProt Q70CQ3, A162S, form not given); experiment: Thermal shift assay, USP30 ch3 A162S; assay type: binding; details: 20 μM inhibitor
USP30^ch3 A162S, sequence (Q70CQ3 64-502 A162S, form open): as the sequence (Q70CQ3 64-502 F157A, form open) above, with A94F, A99S counted along it
USP30^ch3 A162S, sequence (P54578 248-318 partner, form open): as the sequence (P54578 248-318 partner, form open) above
Experimental: as §1

[7] = Solubility in aqueous buffers (observation during crystallization); assay type: physicochemical
[8] = biological target: USP30^ch2 (Homo sapiens, UniProt Q70CQ3); experiment: Thermal shift assay, USP30 ch2; assay type: binding; details: 20 μM inhibitor
USP30^ch2, sequence (Q70CQ3 64-502): as the sequence (Q70CQ3 64-502 F157A, form open) above, with A94F counted along it
USP30^ch2, sequence (P54578 248-318 partner): as the sequence (P54578 248-318 partner, form open) above
Experimental: as §1

Structure (SMILES): CC(C)(CO)NS(=O)(=O)c1ccc(NC(=O)[C@H](Cc2ccccc2)NC(=O)c2ccc(F)cc2)cc1 [NK036]
- Tm in presence of compound, USP30^ch3 F157A [1]: 58.5 °C
- Tm in presence of compound, USP30^ch3 I154A [2]: 59.0 °C
- Tm in presence of compound, USP30^ch4 [3]: 59.2 °C
- ΔTm, USP30^ch4 ([3]; 20 µM): 7.7 °C and 7.6 °C and 7.9 °C
- probe labeling of Flag-USP30 F453Y [4]: equally labeled
- activity in probe-labeling experiment with endogenous USP30 [5]: confirmed
- Tm in presence of compound, USP30^ch3 A162S [6]: 59.7 °C
- solubility in aqueous buffers [7]: improved
- Tm in presence of compound, USP30^ch2 [8]: 58.5 °C

Structure (SMILES): CC(C)(C)NS(=O)(=O)c1ccc(NC(=O)[C@H](Cc2ccccc2)NC(=O)c2ccc(F)cc2)cc1 [compound 39]
- Tm in presence of compound, USP30^ch3 F157A [1]: 58.8 °C
- Tm in presence of compound, USP30^ch3 I154A [2]: 59.0 °C
- Tm in presence of compound, USP30^ch4 [3]: 60.3 °C
- ΔTm, USP30^ch4 ([3]; 20 µM): 8.8 °C
- ΔTm, USP30^ch4 ([3]; listed as NK017, 20 µM): 9.0 °C and 8.7 °C (2×)
- probe labeling of Flag-USP30 F453Y [4]: equally labeled
- activity in probe-labeling experiment with endogenous USP30 [5]: confirmed
- Tm in presence of compound, USP30^ch3 A162S [6]: 60.0 °C
- solubility in aqueous buffers [7]: poor solubility
- Tm in presence of compound, USP30^ch2 [8]: 59.1 °C
